# Read-outs that look alike come from different tables or passages of the source.
# Columns and labels:
# [1] = Stability of TPGS/PG formulations in simulated gastric fluid (precipitate formation); assay type: physicochemical; conditions: for Precipitate formation, directly after addition: 1.0 mL TPGS/PG solution added to 10 mL SGF, visual inspection; for Precipitate formation, 24 h: TPGS/PG solution in SGF
# Procedure: Simulated gastric fluid (SGF) is prepared as follows. 200 mg NaCl are dissolved in 70 mL H2O. 0.7 mL concentrated HCl is added. Subsequently, 320 mg of pepsin powder is added, and the mixture is filled up to 100 mL with H2O. A clear solution is obtained (pH 1-2).
# 2 mL TPGS/PG is added to 5-6 mg of the respective compound of formula I, and the obtained solutions are shaken for 5 h. […] 1.0 mL of the centrifuged solution is added drop-wise to 10 mL SGF. Precipitate formation is determined by visual inspection of each solution immediately after addition of the solution comprising the respective compound of formula I in TPGS/PG to SGF and after 24 hours.
# Plasma stability ex vivo = assay type: in vitro ADME; conditions: human plasma, 37° C., read-out: t1/2 plasma
# Procedure: Plasma stability is determined in human and rat plasma ex vivo. For the determination of the plasma stability of the compounds of formula I, the test compounds were incubated with human plasma (c=5 μg/mL) at 37° C. for certain time intervals up to 60, resp. 120 min (depending on the compound). Afterwards the incubations were stopped by equivalent addition of acetonitrile for protein precipitation, and the samples were mixed and centrifuged. The supernatants were adequately diluted and analyzed by HPLC with UV detection at 305 nm.
# The degradation of the compounds of formula I as well as the formation of the active drug entacapone were monitored, and the half-life times of the compounds of formula I were calculated from the obtained peak areas.
# [2] = Solubility in 0.1 N HCl, PBS buffer, FaSSIF and FeSSIF; assay type: physicochemical; conditions: thermodynamic from solid
# Method in brief: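 Excess compound was shaken for 10 min at ambient temperature in 0.1 N HCl (pH 1), PBS (pH 7.4), FaSSIF (pH 6.5) or FeSSIF (pH 5.0). After centrifugation, the dissolved concentration was measured by reversed-phase HPLC with UV detection at 220 nm.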
# [3] = Stability in TPGS/PG over 22 h; assay type: physicochemical; conditions: for Amount of compound: TPGS/PG, ambient temperature; for Amount of entacapone: entacapone formed in TPGS/PG
# Procedure: The stability of selected compounds of formula I in TPGS/PG over 22 h is tested by the following procedure: […]
# 37.5 mg of compounds 15, 35 and 57, respectively […] of compound 63, are in each case added to 25 mL of TPGS/PG (25% by weight of TPGS, 75% by weight of PG) (concentration of compounds 15, 35, 57:1.5 mg/mL; concentration of compound 63:1.4 mg/mL). Each formulation obtained is stirred for 22 h at ambient temperature. The amount of the respective compound of formula I and the amount of entacapone are determined after 5 h, 8 h, 11 h, and 22 h by HPLC assay. Reversed phase gradient HPLC method, column YMC Pro C8, 50 mm×4.0 mm, 3 μm, Eluent A: Water:trifluoroacetic acid (100:0.5 (v/v)), Eluent B: Acetonitrile:trifluoroacetic acid (100:0.5 (v/v)). Column temperature 30° C., Flow rate 3.0 mL/min, Detection wavelength: 220 nm
# [4] = Log D (pH 7.4) by isocratic HPLC; assay type: physicochemical; conditions: YMC Pro C18 column, phosphate buffer pH 7.4/acetonitrile 45/55
# Method in brief: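 Retention measured by isocratic HPLC on a C18 column (150 mm×4.0 mm, 3 μm) eluted with phosphate buffer pH 7.4/acetonitrile 45/55 (v/v) at 1.2 ml/min, run time 15-60 min. Detection at 220 nm.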
# [5] = Chemical hydrolysis stability at pH 1 and pH 7.4 (HPLC); assay type: physicochemical; conditions: 37° C., over 12 h
# Method in brief: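 Compound dissolved in 0.1 N HCl or PBS and held at 37° C over 12 h, sampling at set intervals for remaining prodrug by reversed-phase C8 HPLC with 220 nm detection. Peak areas expressed relative to first injection, ln-plotted against time; t1/2 [h] derived assuming first-order kinetics.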
# [6] = FaSSIF, pH 6.5, fassif, Table 11, read-out: Solubility FaSSIF pH 6.5
# [7] = FaSSIF, pH 6.5, fassif, fasting state fluid, ambient temperature, read-out: Solubility FaSSIF Ph 6.5
# [8] = FeSSIF, pH 5, fessif, Table 11, read-out: Solubility FeSSIF pH 5.0
# [9] = FeSSIF, pH 5, fessif, fed state fluid, ambient temperature, read-out: Solubility FeSSIF Ph 5.0
# [10] = PBS buffer, pH 7.4, aqueous buffer, Table 11, read-out: Solubility PBS pH 7.4
# [11] = PBS buffer, pH 7.4, aqueous buffer, ambient temperature, read-out: Solubility PBS Ph 7.4
# [12] = 5 h, start 1.5 mg/mL (compound 63: 1.4 mg/mL)
# [13] = pH 1, 0.1 N HCl, read-out: t1/2 at pH 1 (converted)
# [14] = pH 7.4, PBS buffer, read-out: t1/2 at pH 7.4 (converted)
"Precipitate formation, directly after addition [1]","Precipitate formation, 24 h [1]",half-life at 5 μg/mL (Plasma stability ex vivo) [h],"solubility at 10 min [2, 6] [µg/mL]","solubility at 10 min [2, 7] [µg/mL]","solubility at 10 min [2, 8] [µg/mL]","solubility at 10 min [2, 9] [µg/mL]","solubility at 10 min [2, 10] [µg/mL]","solubility at 10 min [2, 11] [µg/mL]","Amount of compound [3, 12] [mg/mL]",Amount of compound ([3]; 8 h) [mg/mL],Amount of compound ([3]; 11 h) [mg/mL],Amount of compound ([3]; 22 h) [mg/mL],Amount of entacapone ([3]; 5 h) [mg/mL],Amount of entacapone ([3]; 8 h) [mg/mL],Amount of entacapone ([3]; 11 h) [mg/mL],Amount of entacapone ([3]; 22 h) [mg/mL],chromatographic logD [4],"half-life [5, 13] [h]","half-life [5, 14] [h]",SMILES,also measured
clear,clear,1.48,180,180,190,190,150,150,1.23,1.23,1.16,1.05,0.05,0.06,0.10,0.17,2.9,15.6,7.2,"CCCCC(CC)COC(=O)Oc1cc(/C=C(\C#N)C(=O)N(CC)CC)cc([N+](=O)[O-])c1O (stereo not drawn) [Compound 15, Carbonic acid 5-((E)-2-cyano-2-diethylcarbamoyl-vinyl)-2-hydroxy-3-nitro-phenyl ester 2-ethyl-hexyl ester]",
clear,clear,2,150,150,150,150,130,130,1.21,1.36,1.40,1.23,0.03,0.05,0.07,0.08,3.1,14.4,6.8,"CCCCCCCCOC(=O)Oc1cc(/C=C(\C#N)C(=O)N(CC)CC)cc([N+](=O)[O-])c1O [Compound 35, Carbonic acid 5-((E)-2-cyano-2-diethylcarbamoyl-vinyl)-2-hydroxy-3-nitro-phenyl ester octyl ester]",
clear,clear,0.302,140,140,30,30,260,260,1.37,1.39,1.35,1.31,0.03,0.04,0.05,0.08,2.3,16.5,7.7,"CCN(CC)C(=O)/C(C#N)=C/c1cc(OC(=O)OCC2CCCCC2)c(O)c([N+](=O)[O-])c1 [Compound 57, Carbonic acid 5-((E)-2-cyano-2-diethylcarbamoyl-vinyl)-2-hydroxy-3-nitro-phenyl ester cyclohexylmethyl ester]",
clear,clear,,750,750,170,170,1230,1230,1.25,1.12,1.16,1.08,0.02,0.02,0.02,0.03,1.4,28.9,28.9,"CCCC(C)OC(=O)Oc1cc(/C=C(\C#N)C(=O)N(CC)CC)cc([N+](=O)[O-])c1O (stereo not drawn) [Compound 63, Carbonic acid 5-((E)-2-cyano-2-diethylcarbamoyl-vinyl)-2-hydroxy-3-nitro-phenyl ester 1-methyl-butyl ester]","solubility at 10 min ([2]; 0.1 N HCl, pH 1, simulated gastric fluid, Table 11, maximum solubility, read-out: Solubility 0.1N HCl pH 1.0): 20 µg/mL; solubility at 10 min ([2]; 0.1 N HCl, pH 1, simulated gastric fluid, ambient temperature, shaken 10 min, read-out: Solubility 0.1N HCl Ph 1.0): 20 µg/mL"

# Reference: patent US20080103191A1, “ENTACAPONE-DERIVATIVES” (priority 2006, published 2008)
